{"source": "patent US10058097B2", "about": "“Methods to increase corn productivity” (Valent BioSciences Corporation, priority 2016, dated 2018)", "assay_type_in_all_cases": "in vivo", "key": {"corn [1]": {"test_system": "corn", "experiment": "Greenhouse study: GB alone or in combination with GA4, nine days", "conditions": "GA4 120 mg/liter, GB 10,000 mg/liter; n = 7 plants", "protocol": "(§1) In several of the following examples, corn was grown in greenhouse conditions, which are defined as follows. Seeds of a commercial hybrid variety were sown in Pro-Mix® BX (Pro-Mix is a registered trademark of Premier Horticulture Ltd.) with the addition of Osmocote (14-14-14) and gypsum in three-liter pots. Greenhouses were kept at 25±3° C. under a 16:8 hour photoperiod, with illumination at canopy level of ˜250 μmoles m^−2s^−1. Corn was typically fertigated with Peters 21-5-20+micronutrients, calcium ammonium nitrate and magnesium sulfate. Typical growth rates for corn under these conditions ranged from 4-5 cm/day.\n(§2) In most greenhouse studies, spray applications were made. These applications were made in a track sprayer outfitted with a 4001E Teejet® nozzle (Teejet is available from and a registered trademark of Spraying Systems Co., Glendale Heights, Ill., USA) and applied at 40 psi. Although application volumes did vary between some studies, generally, 30 gallons/acre of spray solution was applied. Following spray applications, plants were returned to the greenhouse. Typically, experiments were blocked according to plant size, and a randomized complete block design (RCB) was used.\n(§3) Synergy was determined using the following formula, in which a synergy factor is calculated by the Abbott method: % Cexp=A+B−(AB/100), here % Cexp is the expected efficacy and “in which A and B are the increase in growth (or resistance to stress) levels given by the single [plant growth regulators]. If the ratio between the experimentally observed efficacy of the mixture Cobs and the expected efficacy of the mixture is greater than 1, synergistic interactions are present in the mixture” (Gisi, Synergistic Interaction of Fungicides in Mixtures, The American Phytopathological Society, 86:11, 1273-1279, 1996).\nIn a greenhouse study, the effect of combining GB with GA4 was studied."}, "corn [2]": {"test_system": "corn", "experiment": "Greenhouse study: Gibberellins, (S)-ABA and Glycine betaine on corn growth", "conditions": "GA3 or GA4 120 mg/liter, GB 10000 mg/liter, (S)-ABA 8.8 mg/liter", "protocol": "as §1, §2\nWhen gibberellins are combined with specific ratios of (S)-(+)-abscisic acid (“(S)-ABA”), a surprising enhancement of corn growth after application is often observed. The addition of GB to gibberellin+(S)-ABA spray combinations further increases the growth-promoting activity of the mixtures, as is shown in Table 6."}, "greenhouse-grown maize [3]": {"test_system": "greenhouse-grown maize", "experiment": "Leaf chlorophyll by SPAD meter, GA3 dose +/- GB", "conditions": "GA3 0 mg/liter, GB 10000 mg/liter; n = 8 plants", "protocol": "In the same study, leaf chlorophyll was monitored by measurements with a SPAD meter (Minolta Model 502; Ramsey, N.J.). In this study, the chlorophyll level in the most recently fully-expanded leaf was measured at five different points and the results averaged."}, "greenhouse-grown maize [4]": {"test_system": "greenhouse-grown maize", "experiment": "Greenhouse study: effect of GA3 dose +/- GB on growth, 7 and 14 days", "conditions": "GA3 0 mg/liter, GB 10000 mg/liter", "protocol": "as §1, §2, §3\nIn a separate study, the effect of one rate of GB on various doses of GA3 was studied."}, "potted corn plants [5]": {"test_system": "potted corn plants", "experiment": "Acute drought stress greenhouse study, potted corn, 7 and 14 days", "conditions": "acute drought stressed; 120 ppm GA3, 3000 ppm GB; spray at V4", "protocol": "In a separate acute drought stress greenhouse study conducted in Long Grove, Ill., corn plants were sprayed at V4 stage with solutions containing a non-ionic surfactant (0.25%, v/v) at 30 gallons of spray solution/acre and growth was determined by shoot height increase 7 and 14 days later. After treatment corn plants were not watered with the exception of one treatment of control (aqueous surfactant solution) that were watered as needed (well-watered control)."}, "corn plants [6]": {"test_system": "corn plants", "experiment": "Greenhouse study: growth of corn after V3 spray with GA3 or GB, nine days", "conditions": "non-stressed greenhouse; spray at V3; GA3 120 mg/liter, GB 3000 mg/liter; n = 7", "protocol": "as §1, §2\nIn a greenhouse study conducted in Long Grove, Ill., corn plants were sprayed at V3 stage with solutions containing a non-ionic surfactant (0.25%, v/v) at 30 gallons of spray solution/acre and growth was followed for nine days.\nas §3\nBased on a conservative approach, synergy was determined to be present at ratios of ≥1.10. When grown under non-stressed conditions, GA3 growth was synergized by the addition of 3,000 mg/liter glycine betaine (“GB”), with a synergy factor of 1.65 for growth and 1.68 for growth rate while dry weight/plant was not synergistic with a synergy factor of 0.95."}, "corn [7]": {"test_system": "corn", "experiment": "Nutrient stress greenhouse study, GA3 and/or GB, 7 days", "conditions": "GA3 120 mg/liter, GB 10,000 mg/liter; for Change in Height: n = 7 plants", "protocol": "as §3\nDuring rainy periods in March-May in the Midwestern United States, nitrogen fertilizer for corn is often limited due to a combination of leaching and mineralization. GB included with GA3 can help overcome the slow growth caused by low nutrients. In a greenhouse study in Long Grove, Ill. we evaluated the effect of GA3, GB and the combination under ‘normal nutrient’ and limited nutrient conditions."}, "corn plants [8]": {"test_system": "corn plants", "experiment": "Chilling stress study (10° C. for five days) after spray with GA3 or GB", "conditions": "chilling stress at 10° C. for five days; GA3 120 mg/liter, GB 3000 mg/liter; n = 7 plants", "protocol": "In stress studies, plants were subjected to various stresses. In cold stress studies, after spraying, plants were grown in the greenhouse for an additional 48 hours before being measured and moved to a CMP6050 CONVIRON® chamber kept at 10° C. (Conviron is a registered trademark of Controlled Environments Limited Corporation). Illumination was at ˜225 μMoles, and light:dark conditions were on a 12:12 hour photoperiod. After 120 hours of chilling, plants were removed from the cold, measured, and returned to the greenhouse for 48 hours prior to harvest.\nas §3\nIn a greenhouse and growth room study conducted in Long Grove, Ill., corn plants of a commonly grown hybrid were subjected to the following stress regimen: at two days post-foliar application, plants were moved into a controlled environment chamber, where the temperature was maintained at 10° C. with a 12:12 hour photoperiod for five days. At the end of the chilling period, the corn was moved back to the greenhouse for two days before destructive harvest."}, "potted corn plants [9]": {"test_system": "potted corn plants", "experiment": "Chronic drought stress greenhouse study, potted corn, 14 days", "conditions": "20 Percent Volumetric Water Content, 120 mg/liter GA3, 3000 mg/liter GB, n = 5", "protocol": "In drought stress studies, corn plants were sprayed at the V4 stage with solutions containing a non-ionic surfactant (0.25%, v/v) at 30 gallons of spray solution/acre and growth was determined by change in height from time of treatment or fresh and dry shoot weight measurements 14 days later.\nIn greenhouse drought stress studies, corn plants were treated and subsequently watered with an automated irrigation system that maintained the soil moisture in the pots at 45% or 20% volumetric water content (“VWC”). Plants set to 20% after treatment took about 4 days without the automated system adding water to those pots to reach 20% VWC and then the automated system added water as needed to maintain 20% VWC. Total soil moisture capacity was 45% VWC and 20% VWC represented drought stress conditions. This would be considered chronic stress, as a lower level of VWC was maintained throughout the experiment after treatment."}}, "data": [{"smiles": "C=C1C[C@]23C[C@H]1CC[C@H]2[C@@]12CC[C@H](O)[C@@](C)(C(=O)O1)[C@H]2[C@@H]3C(=O)O", "note": "[GA4, gibberellin A4]", "values": [{"measurement": "Dry Weight", "setting": "corn [1]", "result": 7.68, "unit": "g"}, {"measurement": "Growth Rate", "setting": "corn [1]", "result": 7.1, "unit": "cm/day"}, {"measurement": "Plant Growth over 9 days", "setting": "corn [1]", "result": 64.1, "unit": "cm"}, {"measurement": "7 days Change in Height", "setting": "corn [2]", "result": 33.9, "unit": "cm"}, {"measurement": "14 days Change in Height", "setting": "corn [2]", "result": 62.2, "unit": "cm"}, {"measurement": "Dry Weight", "setting": "corn [2]", "result": 8.1, "unit": "g"}]}, {"smiles": "C[N+](C)(C)CC(=O)[O-]", "note": "[GB, Glycine betaine]", "values": [{"measurement": "Chlorophyll (SPAD reading) 14 days", "setting": "greenhouse-grown maize [3]", "result": 34.0, "unit": "SPAD reading"}, {"measurement": "Growth Rate, 0-7 day(s)", "setting": "greenhouse-grown maize [4]", "result": 2.51, "unit": "cm/day"}, {"measurement": "Growth Rate, 0-14 day(s)", "setting": "greenhouse-grown maize [4]", "result": 6.23, "unit": "cm/day"}, {"measurement": "Plant Growth over 14 days", "setting": "greenhouse-grown maize [4]", "result": 43.6, "unit": "cm"}, {"measurement": "Plant Growth over 7 days", "setting": "greenhouse-grown maize [4]; n = 8 plants", "result": 17.6, "unit": "cm"}, {"measurement": "Dry Weight", "setting": "corn [1]", "result": 7.47, "unit": "g"}, {"measurement": "Growth Rate", "setting": "corn [1]", "result": 6.1, "unit": "cm/day"}, {"measurement": "Plant Growth over 9 days", "setting": "corn [1]", "result": 55.2, "unit": "cm"}, {"measurement": "Shoot Growth 7 days after treatment as Percent Increase as compared to Drought Stressed Control", "setting": "potted corn plants [5]", "result": 95.9, "unit": "%"}, {"measurement": "Shoot Growth 14 days after treatment as Percent Increase as compared to Drought Stressed Control", "setting": "potted corn plants [5]", "result": 97.6, "unit": "%"}, {"measurement": "Dry Weight/Plant", "setting": "corn plants [6]", "result": 2.75, "unit": "g"}, {"measurement": "Growth Rate", "setting": "corn plants [6]", "result": 4.49, "unit": "cm/day"}, {"measurement": "Growth over 9 days", "setting": "corn plants [6]", "result": 40.4, "unit": "cm"}, {"measurement": "Dry Weight", "setting": "corn [7]; Low Nutrients", "result": 2.79, "unit": "g"}, {"measurement": "Leaf Area (L1-L6)", "setting": "corn [7]; Low Nutrients", "result": 611.73, "unit": "cm^2"}, {"measurement": "Change in Height", "setting": "corn [7]; Low Nutrients", "result": 24.54, "unit": "cm"}, {"measurement": "Dry Weight", "setting": "corn [7]; Normal Nutrients", "result": 3.25, "unit": "g"}, {"measurement": "Leaf Area (L1-L6)", "setting": "corn [7]; Normal Nutrients", "result": 656.76, "unit": "cm^2"}, {"measurement": "Change in Height", "setting": "corn [7]; Normal Nutrients", "result": 35.37, "unit": "cm"}, {"measurement": "Growth Rate", "setting": "corn plants [8]", "result": 2.16, "unit": "cm/day"}, {"measurement": "Growth over 9 days", "setting": "corn plants [8]", "result": 19.41, "unit": "cm"}, {"measurement": "Leaf Area of L1-L5", "setting": "corn plants [8]", "result": 356.47, "unit": "cm^2"}, {"measurement": "Percent Dry Weight of Drought Stressed Control", "setting": "potted corn plants [9]", "result": 94.33, "unit": "%"}, {"measurement": "Percent Fresh Weight of Drought Stressed Control", "setting": "potted corn plants [9]", "result": 93.16, "unit": "%"}]}]}
